# In PubChem BioAssay (NCI):
#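 Cells were grown in 96-well plates and exposed to each compound for 48 hours at five concentrations; endpoints were interpolated linearly between bracketing concentrations, or set to the highest concentration if not reached. At the TGI there is no net growth.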
# System: SNB-75 CNS
# Assay: growth of human tumour cells (NCI), 48 h
row,Structure (SMILES),TGI [µM]
1,N#Cc1cccc(-n2[nH]c(=O)ccc2=O)c1,> 100
2,CCN(CC)CCCNC(=O)c1cc(-c2nccn2C)nc2ccccc12,> 100
3,O=C1/C(=C/c2ccco2)NC(=S)N1CN1CCCCC1,> 100
4,Nc1nc(Cl)cc(OCC2(CO)CC=CC2)n1,> 100
5,CCOC(=O)CCCSCCCC(=O)CCCSCCCC(=O)OCC,> 100
6,CC(C)=C[C@H]1C[C@H](C)[C@H]2CC[C@H](C)c3c2c1c(C)c1ncoc31,36.2
7,O=C1/C(=C\c2ccc(Cl)cc2Cl)Sc2scc(-c3ccc(O)c(O)c3)[n+]21,53.4
8,CCOC(=O)C(=[N+]=[N-])C(=O)CN1C(=O)c2ccccc2C1=O,> 100

# System: SK-OV-3 ovarian
# Assay: growth of human tumour cells (NCI), 48 h
row,Structure (SMILES),TGI [µM]
1,CCCCCCc1cc2cc(-c3cn4ccsc4n3)c(=O)oc2cc1O,> 100
2,COC(=O)[C@]1(C)CCC[C@@]2(C)C1CC[C@@]13C=C(C(C)C)[C@@H](CC1=O)CC23 (stereo not given in full),> 100
3,Cc1nn(C(=O)Cc2ccccc2)c2c1C(c1ccccc1)SC(N)=N2 (stereo not given),> 100
4,C=CCNC(=S)N/C=C(\C#N)C(N)=O,> 100
5,COc1ccc(C2=CC(C(C)=C(C(N)=O)C(N)=O)C=C(c3ccc(Br)cc3)C2)c(OC)c1 (stereo not given),> 100
6,O=C1c2sc(-c3ccc(Cl)cc3)cc2-n2cccc21,> 100
7,CC(C)C(NC(=O)Oc1ccccc1)C(=O)NC1c2c(Br)sc(Br)c2C(=O)C1O (stereo not given),> 25
8,COCCOCOC(CCCCO)c1cc(C)c(O[Si](C)(C)C(C)(C)C)c(C)c1 (stereo not given),31.8
9,CSC(=O)c1sc(SC)[n+](-c2ccccc2)c1O,> 100
10,CC1=NN(c2nc(N)nc(COc3ccc(N)cc3)n2)C(C)(C)C1,> 100
11,Cc1cc(OC(=O)Nc2cccc3ccccc23)c(C(C)C)cc1C(=S)Nc1ccccc1,51.7
12,CC(=O)OCCOCNC(=S)N/N=C/c1ccc([N+](=O)[O-])o1,> 100
13,COc1cc2c(/C=C3/C(=O)Nc4cccc(Cl)c43)c(Cl)[nH]c2cc1C,5.67
14,Nc1ncc2c(n1)-c1ccccc1OC2N1CCCCC1 (stereo not given),> 100
15,COc1cc(C2C(Cl)C(=O)N2n2cnc3ccccc3c2=O)ccc1O (stereo not given),> 100
16,C[C@]12c3c4cc(NC(=O)C(=O)NCc5ccc(-c6ccccn6)nc5)cc3Oc3cc(NC(=O)C(=O)NCc5ccc(-c6ccccn6)nc5)cc(c31)OC1C=C(NC(=O)C(=O)NCc3ccc(-c5ccccn5)nc3)C=C(O4)C12 (stereo not given in full),> 100
17,COc1cc(OCCN(C)C)c2[nH]c(C(=O)N3CC(CCl)c4ccc(N)cc43)cc2c1 (stereo not given),32
18,O=C1c2ccccc2-n2nnnc2C2CSCN12 (stereo not given),> 100
19,O=c1[nH]c(=O)c2c3n(cc2[nH]1)CCCCC3,> 100
20,COc1ccc(NC(=S)c2ccc(CN3CCCCC3)s2)cc1,31.8
21,O=C1/C(=C/c2ccco2)NC(=S)N1CN1CCCCC1,> 100
22,CCOC(=O)CCCSCCCC(=O)CCCSCCCC(=O)OCC,> 100
23,O=C1/C(=C\c2ccc(Cl)cc2Cl)Sc2scc(-c3ccc(O)c(O)c3)[n+]21,39.2
24,CCOC(=O)C(=[N+]=[N-])C(=O)CN1C(=O)c2ccccc2C1=O,> 100

# System: TK-10 renal
# Assay: growth of human tumour cells (NCI), 48 h
row,Structure (SMILES),TGI [µM]
1,CCCCCCc1cc2cc(-c3cn4ccsc4n3)c(=O)oc2cc1O,> 100
2,COC(=O)[C@]1(C)CCC[C@@]2(C)C1CC[C@@]13C=C(C(C)C)[C@@H](CC1=O)CC23 (stereo not given in full),> 100
3,Cc1nn(C(=O)Cc2ccccc2)c2c1C(c1ccccc1)SC(N)=N2 (stereo not given),> 100
4,CCNC(=O)c1ccc(C)c(N=NN(C)C)c1,> 100
5,COc1ccc(C2=CC(C(C)=C(C(N)=O)C(N)=O)C=C(c3ccc(Br)cc3)C2)c(OC)c1 (stereo not given),> 100
6,O=C1c2sc(-c3ccc(Cl)cc3)cc2-n2cccc21,> 100
7,CC(C)C(NC(=O)Oc1ccccc1)C(=O)NC1c2c(Br)sc(Br)c2C(=O)C1O (stereo not given),> 25
8,COCCOCOC(CCCCO)c1cc(C)c(O[Si](C)(C)C(C)(C)C)c(C)c1 (stereo not given),27.3
9,CSC(=O)c1sc(SC)[n+](-c2ccccc2)c1O,40.3
10,CC1=NN(c2nc(N)nc(COc3ccc(N)cc3)n2)C(C)(C)C1,> 100
11,CC(=O)OCCOCNC(=S)N/N=C/c1ccc([N+](=O)[O-])o1,> 100
12,COc1cc2c(/C=C3/C(=O)Nc4cccc(Cl)c43)c(Cl)[nH]c2cc1C,3.58
13,Nc1ncc2c(n1)-c1ccccc1OC2N1CCCCC1 (stereo not given),> 100
14,COc1cc(C2C(Cl)C(=O)N2n2cnc3ccccc3c2=O)ccc1O (stereo not given),> 100
15,C[C@]12c3c4cc(NC(=O)C(=O)NCc5ccc(-c6ccccn6)nc5)cc3Oc3cc(NC(=O)C(=O)NCc5ccc(-c6ccccn6)nc5)cc(c31)OC1C=C(NC(=O)C(=O)NCc3ccc(-c5ccccn5)nc3)C=C(O4)C12 (stereo not given in full),> 100
16,COc1ccc(C2Oc3cc(OC)c(OC)cc3C2CCl)cc1OC (stereo not given),> 100
17,COC(=O)c1cccc(C)c1C1CN=NC12Cc1cc(C)cc(C)c1C2=O (stereo not given),> 100
18,COc1cc(OCCN(C)C)c2[nH]c(C(=O)N3CC(CCl)c4ccc(N)cc43)cc2c1 (stereo not given),1.09
19,O=C1c2ccccc2-n2nnnc2C2CSCN12 (stereo not given),> 100
20,O=c1[nH]c(=O)c2c3n(cc2[nH]1)CCCCC3,> 100
21,N#Cc1cccc(-n2[nH]c(=O)ccc2=O)c1,> 100
22,Cc1ccc(S[C@@H](C)[C@@](O)(CF)CN(Cc2ccccc2)C(=O)C(F)(F)F)cc1,> 100
23,CCN(CC)CCCNC(=O)c1cc(-c2nccn2C)nc2ccccc12,> 100
